Assay results as given in patent US20080139534A1, “Bisbenzamidines and bisbenzamidoximes for the treatment of human African trypanosomiasis” (XAVIER UNIVERSITY OF LOUISIANA, priority 2006, published 2008).
Like-named read-outs stand apart in the source and are kept apart here. Marks after values point to notes of the source that are not given here.

Experiments:
[1] = system: T. b. brucei Lab 110 EATRO; experiment: In vitro trypanocidal activity, bloodforms in HMI-18 medium, Coulter counts; type: cell-based, Trypanosoma brucei brucei; conditions: 48 h exposure, bloodforms, read-out: Lab 100 EATRO IC50
Experimental: (§1) The compounds were tested against trypanosome isolates grown as blood forms in HMI-18 medium containing 20% horse serum in 24 well microplates at 37° C. in 5% CO2. Wells were inoculated with 1×10^5 trypanosomes. […] One-half the volume was replaced daily. Cell counts were made daily with a Coulter Counter, Model Z1 (Beckman Coulter, Miami, Fla., USA). Cells were diluted with Isoton I buffer (Beckman Coulter) and the aperture was standardized at 5.14 μm. Background checks were performed daily on 1:10 dilutions of medium. Counts, normalization, and coincident counts were accounted for by the standardized Coulter analysis program. Occasionally, hemocytometer counts were performed as a check on the validity of the Coulter program. IC50 values were determined after 48 h from semi-log plots and the values are the result of duplicate determinations. Initially a broad concentration curve was used and then a close concentration curve from which IC50 values were determined. Assays were done in duplicate and each point was the average of the two. Control cells grew to 5×10^6/ml.
(§2) Coulter counts were made daily and IC50 values determined after 48 hours exposure.

[2] = system: T. b. rhodesiense KETRI 243; experiment: as above; type: cell-based, Trypanosoma brucei rhodesiense; conditions: 48 h exposure
Experimental: as §1, §2

poly(dA-dT) = experiment: Thermal denaturation study, DNA binding affinity (ΔTm); conditions: 1:5 compound to base pair ratio;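 note: shift in the midpoint temperature of the thermal melting curve of poly(dA-dT), each value the mean of two or more independent determinations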
Experimental: (§3) The binding affinity was measured by determining the change in the midpoint (Tm) of the thermal denaturation curves of calf thymus DNA as well as poly(dA-dT) at a 1:5 compound to base pair ratio.

calf thymus DNA = experiment: as above; conditions: 1:5 compound to base pair ratio;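 note: shift in midpoint melting temperature of calf thymus DNA thermal denaturation curves caused by compound binding, values averaged over at least two determinations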
Experimental: as §3

[3] = system: T. b. brucei Lab 110 EATRO; experiment: In vivo efficacy in infected mice; set-up: species or system Trypanosoma brucei brucei
Experimental: Female Swiss-Webster mice (weight, 20 g) were infected (intraperitoneally) with 2.5×10^5 trypanosomes from rat blood, and the infection was allowed to develop for 24 h before drug treatment was begun. Groups of three mice each were injected (intraperitoneally) with each drug concentration. All of the experiments included a group of untreated controls. […] Parasitemia of animals dying of infection averaged 0.5-1.0×10^9/mL of blood. These infections are very predictable and daily counts were not done because of the labor involved. […] Animals were monitored weekly for parasites in tail vein blood smears. Mice were considered cured if they survived more than 30 days after the death of the last control with no parasites in tail vein blood smears. MSD (mean survival in days) was also recorded for each group. It is the average time of survival of the animals in the group, exclusive of cured animals.
Mice were infected with 250,000 parasites and dosing commenced 24 h. post infection. Mice were separated into groups of three and given single i.p doses for 3 days unless otherwise noted. Infected untreated controls were used for each experiment. Mice were considered cured if surviving more than 30 days beyond death of controls without parasites in tail vein blood smears. MSD, mean survival in days, exclusive of cured animals.

[4] = mice, 1 mg/kg/day i.p. for 3 days
[5] = mice, 5 mg/kg/day i.p. for 3 days
[6] = mice, 10 mg/kg/day i.p. for 3 days
[7] = Trypanosoma brucei, RHODESIENSE
[8] = mice, 1, 2.5, 5, 10, 15, 25 mg/kg/day i.p. for 3 days (all doses failed to cure)
[9] = mice, 1, 2.5, 5, 10, 15, 25 mg/kg/day i.p. for 3 days (all doses)

SMILES	IC50 [1]	IC50 [2]	DNA Binding Δ Tm Poly (dA-dT) (poly(dA-dT))	DNA Binding Δ Tm Calf thymus (calf thymus DNA)	also measured
Cl.Cl.c1cc(C2=NCCN2)ccc1CC1CCCN(c2ccc(C3=NCCN3)cc2)C1 (stereo not shown) [4CF]	86 nM	85 nM	14.1 °C	9.9 °C	–
CCOC(=O)c1ccc(N2CCN(c3ccc(C(=O)OCC)cc3)CC2)cc1 [compound 0118]	340 nM	350 nM	0.0 °C	0.6 °C	–
Cl.Cl.N=C(NC1CCC1)c1ccc(N2CCN(c3ccc(C(=N)NC4CCC4)cc3)CC2)cc1 [compound 0143]	6 nM	51 nM	–	16.4 °C	# Cured/#Treated (%) [3, 4]: 0/3; MSD [3, 4]: 5 days; MSD [3, 5]: 11 days; MSD [3, 6]: >30 days
CN=C(N)c1ccc(N2CCN(c3ccc(C(N)=NC)cc3)CC2)cc1 [compound 0112, N,N′-Dimethyl 4,4′-(1,4-piperazinediyl)bisbenzenecarboxidamide]	205 nM	33 nM	22.2 °C	15.2 °C	–
N=C(N)c1ccc(NC(=O)CCC(=O)Nc2ccc(C(=N)N)cc2)cc1 [compound 0707]	9000 nM	2190 nM	–	–	–
c1cc(N2CCN(c3ccc(C4OCCO4)cc3)CC2)ccc1C1OCCO1 [compound 0111]	5800 nM	2300 nM	0.1 °C	−1.2 °C	–
Cl.Cl.c1cc(N2CCN(c3ccc(C4=NCCCN4)cc3)CC2)ccc1C1=NCCCN1 [632N]	–	–	17.9 °C	12.2 °C	–
c1ccc(N2CCN(c3ccccc3)C2c2ccc(N3CCN(c4ccc(C5N(c6ccccc6)CCN5c5ccccc5)cc4)CC3)cc2)cc1 [compound 0109]	120 nM	335 nM	0.0 °C	−1.2 °C	–
N=C(NO)c1ccc(N2CCN(c3ccc(C(=N)NO)cc3)CC2)cc1 [compound 0125, N,N′-Dihydroxy 4,4′-(1,4-piperazinediyl)bisbenzenecarboxidamide]	–	–	–	0.8 °C	IC50 ([1]; Trypanosoma brucei): 1020 nM; IC50 [2, 7]: 1920 nM; # Cured/#Treated (%) ([3]; mice, 50 mg/kg/day (po)): 0/3; MSD ([3]; mice, 50 mg/kg/day (po)): 5 days; # Cured/#Treated (%) ([3]; mice, 100 mg/kg/day (po)): 0/3; MSD ([3]; mice, 100 mg/kg/day (po)): 5 days; MSD ([3]; mice, 100 mg/kg/day (split dose, po; 9am and 4 pm)): >30 days
N=C(NO)c1ccc(C(=O)Nc2cccc(NC(=O)c3ccc(C(=N)NO)cc3)c2)cc1 [compound 0343]	–	–	0.1 °C	−0.3 °C	–
NC(=O)c1ccc(NC(=O)CCCCC(=O)Nc2ccc(C(N)=O)cc2)cc1 [compound 0716]	2800 nM	1100 nM	–	–	–
N/C(=N\O)c1ccc(NC(=O)CCCC(=O)Nc2ccc(/C(N)=N/O)cc2)cc1 [compound 0704, N,N′-bis[4-(N-Hydroxyamidino)phenyl]pentanediamide]	–	–	–	–	IC50 ([1]; Trypanosoma brucei): 7300 nM; IC50 [2, 7]: 10000 nM
CC(C)CCNC(=N)c1ccc(N2CCN(c3ccc(C(=N)NCCC(C)C)cc3)CC2)cc1.Cl.Cl [compound 0135]	72 nM	61 nM	21.8 °C	15.3 °C	–
CC(=O)c1ccc(N2CCN(c3ccc(C(C)=O)cc3)CC2)cc1 [compound 0123]	2350 nM	1550 nM	0.0 °C	0.1 °C	–
Cl.Cl.N=C(NC1CCCCCCC1)c1ccc(N2CCN(c3ccc(C(=N)NC4CCCCCCC4)cc3)CC2)cc1 [compound 0134]	2.3 nM	–	15.7 °C	12.6 °C	–
Cl.Cl.c1cc(N2CCN(c3ccc(C4=NCCN4)cc3)CC2)ccc1C1=NCCN1 [compound 0126]	16 nM	6.5 nM	19.4 °C	15.0 °C	–
C(=C1CCCN(c2ccc(C3=NCCN3)cc2)C1)c1ccc(C2=NCCN2)cc1.Cl.Cl (mixture of isomers) [3SF]	71 nM	84 nM	15.0 °C	12.0 °C	–
N=C(NO)c1ccc(NC(=O)c2ccc(C(=O)Nc3ccc(C(=N)NO)cc3)cc2)cc1 [compound 0333]	–	–	0.0 °C	0.6 °C	–
CCCCCCCCCNC(=N)c1ccc(N2CCN(c3ccc(C(=N)NCCCCCCCCC)cc3)CC2)cc1.Cl.Cl [compound 0132]	100 nM	210 nM	2.7 °C	1.3 °C	–
CCCCCCCNC(=N)c1ccc(N2CCN(c3ccc(C(=N)NCCCCCCC)cc3)CC2)cc1.Cl.Cl [compound 0133]	100 nM	57 nM	8.5 °C	8.7 °C	–

SMILES	IC50 [1]	IC50 [2]	DNA Binding Δ Tm Poly (dA-dT) (poly(dA-dT))	DNA Binding Δ Tm Calf thymus (calf thymus DNA)	also measured
CCCCCNC(=N)c1ccc(N2CCN(c3ccc(C(=N)NCCCCC)cc3)CC2)cc1.Cl.Cl [compound 0127]	3 nM	–	22.5 °C	16.9 °C	–
Cl.Cl.N=C(NC1CC1)c1ccc(N2CCN(c3ccc(C(=N)NC4CC4)cc3)CC2)cc1 [63C, N,N′-Dicyclopropyl 4,4′-(1,4-piperazinediyl)bisbenzenecarboxidamide]	–	–	23.9 °C	14.5 °C	–
NC(=O)c1cccc(NC(=O)CCCCC(=O)Nc2cccc(C(N)=O)c2)c1 [compound 0717]	–	1980 nM	–	–	# Cured/#Treated (%) [3, 8]: 0/3^a; MSD [3, 9]: 5 days
CCCNC(=N)c1ccc(N2CCN(c3ccc(C(=N)NCCC)cc3)CC2)cc1.Cl.Cl [63N, N,N′-Dipropyl 4,4′-(1,4-piperazinediyl)bisbenzenecarboxidamide]	–	–	26.0 °C	17.0 °C	IC50 ([1]; Trypanosoma brucei): 35 nM; IC50 [2, 7]: 32.5 nM
N=C(NO)c1ccc(C(=O)Nc2ccc(NC(=O)c3ccc(C(=N)NO)cc3)cc2)cc1 [compound 0353]	–	–	0.1 °C	0.4 °C	–
N=C(NO)c1ccc(NC(=O)c2cccc(C(=O)Nc3ccc(C(=N)NO)cc3)c2)cc1 [compound 0323]	–	–	0.1 °C	0.6 °C	–
N=C(N)c1ccc(OCCCCCOc2ccc(C(=N)N)cc2)cc1 [Pentamidine, reference compound]	–	–	20.6 °C	11.1 °C	IC50 [2, 7]: 2.32 nM; # Cured/#Treated (%) ([3]; mice, 1, 2.5, 5, 10, 25 mg/kg/day i.p. for 3 days (all doses cured)): 5/5*; MSD ([3]; mice, 1, 2.5, 5, 10, 25 mg/kg/day i.p. for 3 days (all doses)): >30 days
N#Cc1ccc(NC(=O)CC(=O)Nc2ccc(C#N)cc2)cc1 [compound 0712]	5000 nM	1600 nM	–	–	–
N=C(N)c1ccc(OC(=O)c2ccc(C(=O)Oc3ccc(C(=N)N)cc3)cc2)cc1 [compound 0432]	4300 nM	3100 nM	–	9.9 °C	–
Cl.Cl.c1cc(N2CCCN(c3ccc(C4=NCCCN4)cc3)CC2)ccc1C1=NCCCN1 [732N]	–	–	21.3 °C	15.5 °C	–
N=C(N)c1ccc(NC(=O)CCCCCCCCCCC(=O)Nc2ccc(C(=N)N)cc2)cc1 [compound 0711]	8.4 nM	6.6 nM	–	–	# Cured/#Treated (%) [3, 8]: 0/3^a; MSD [3, 9]: 5 to 10.3 days
N=C(N)c1cccc(NC(=O)CCCCC(=O)Nc2cccc(C(=N)N)c2)c1 [compound 0715]	41 nM	21 nM	–	–	–
N=C(N)c1ccc(OCc2cccc(COc3ccc(C(=N)N)cc3)c2)cc1 [compound 0512]	0.74 nM	1.5 nM	–	14.0 °C	# Cured/#Treated (%) [3, 4]: 0/3; MSD [3, 4]: 8 days; # Cured/#Treated (%) [3, 5]: 0/3; MSD [3, 5]: 18 days; MSD [3, 6]: >30 days; MSD ([3]; mice, 15 mg/kg/day i.p. for 3 days): >30 days
O=Cc1ccc(N2CCN(c3ccc(C=O)cc3)CC2)cc1 [compound 0107]	–	–	0.0 °C	−0.2 °C	–
O=C(Nc1ccccc1)C(=O)Nc1ccccc1 [compound 0714]	–	155 nM	–	–	–
CCCCCCCCNC(=N)c1ccc(N2CCN(c3ccc(C(=N)NCCCCCCCC)cc3)CC2)cc1.Cl.Cl [compound 0130]	3.65 nM	19 nM	–	4.2 °C	# Cured/#Treated (%) ([3]; mice, 1, 2.5, 5, 10, 15, 20 mg/kg/day i.p. for 3 days (all doses failed to cure)): 0/3^a; MSD ([3]; mice, 1, 2.5, 5, 10, 15, 20 mg/kg/day i.p. for 3 days (all doses)): 5 days
N=C(N)c1ccc(NC(=O)CCCCCCCC(=O)Nc2ccc(C(=N)N)cc2)cc1 [compound 0708]	400 nM	240 nM	–	–	–
N#Cc1ccc(NC(=O)C(=O)Nc2ccc(C#N)cc2)cc1 [compound 0713]	680 nM	340 nM	–	–	–
N=C(N)c1ccc(NC(=O)CCCCC(=O)Nc2cccc(C(=N)N)c2)cc1 [compound 0721]	12.5 nM	7 nM	–	–	–
CCCCCCCCCCNC(=N)c1ccc(N2CCN(c3ccc(C(=N)NCCCCCCCCCC)cc3)CC2)cc1.Cl.Cl [compound 0131]	180 nM	220 nM	–	1.3 °C	# Cured/#Treated (%) [3, 8]: 0/3^a; MSD [3, 9]: 5 days
